Measurements as given in ChEMBL document CHEMBL1149803, “Synthesis and anticonvulsant activity of some novel 3-aryl amino/amino-4-aryl-5-imino-Delta2-1,2,4-thiadiazoline” (Eur J Med Chem, 2008).
Activity calls are given as the source filed them. The rule behind the calls is not given here.

How the values were obtained:
[1] = system: Mus musculus; experiment: Anticonvulsant activity in CF1 albino mouse assessed as prevention of maximal electroshock-induced seizures at 300 mg/kg, ip after 4 hrs; assay type: functional, organism-based; parameters: dose 300 mg/kg
[2] = system: Mus musculus; experiment: Anticonvulsant activity in CF1 albino mouse assessed as prevention of subcutaneous pentylenetetrazole-induced seizure at 300 mg/kg, ip after 0.5 hrs; assay type: functional, organism-based; parameters: dose 300 mg/kg
[3] = system: Mus musculus; experiment: Anticonvulsant activity in CF1 albino mouse assessed as prevention of subcutaneous pentylenetetrazole-induced seizure at 300 mg/kg, ip after 4 hrs; assay type: functional, organism-based; parameters: dose 300 mg/kg
[4] = system: Mus musculus; experiment: Anticonvulsant activity in ip dosed CF1 albino mouse assessed as prevention of maximal electroshock-induced seizures after 0.5 hrs; assay type: functional
[5] = system: Mus musculus; experiment: Neurotoxicity in ip dosed CF1 albino mouse after 0.5 hrs by rotarod test; assay type: toxicity, organism-based; conditions: in vivo
[6] = system: Rattus norvegicus; experiment: Sedative-hypnotic effect in Sprague-Dawley albino rat assessed as increase in sleep time at 100 mg/kg, ip by phenobarbitone-induced hypnosis test; assay type: functional; conditions: route intraperitoneal
[7] = system: Mus musculus; experiment: Anticonvulsant activity in ip dosed CF1 albino mouse assessed as prevention of maximal electroshock-induced seizures after 4 hrs; assay type: functional
[8] = system: Mus musculus; experiment: Neurotoxicity in ip dosed CF1 albino mouse after 4 hrs by rotarod test; assay type: toxicity, organism-based; conditions: in vivo
[9] = system: Mus musculus; experiment: Anticonvulsant activity in ip dosed CF1 albino mouse assessed as prevention of subcutaneous pentylenetetrazole-induced seizure after 0.5 hrs; assay type: functional
[10] = system: Mus musculus; experiment: Anticonvulsant activity in CF1 albino mouse assessed as prevention of maximal electroshock-induced seizures at 300 mg/kg, ip after 0.5 hrs; assay type: functional, organism-based; parameters: dose 300 mg/kg

Row | Compound | Activity [1] | Activity [2] | Activity [3] | Activity [4] | Activity [5] | Activity [6] | Activity [7] | Activity [8] | Activity [9] | Activity [10]
1 | N=c1snc(Nc2ncccn2)n1-c1ncccn1 | inactive | inactive | inactive | 100 mg/kg | 100 mg/kg | 11.4% |  |  |  | 
2 | O=C1NC(=O)C(c2ccccc2)(c2ccccc2)N1 [PHENYTOIN] |  | inactive | inactive | 30 mg/kg | 100 mg/kg |  | 100 mg/kg | 100 mg/kg |  | 
3 | N=c1snc(N)n1-c1ccccn1 | inactive | inactive | inactive | 300 mg/kg | 100 mg/kg |  |  |  |  | 
4 | N=c1snc(N)n1-c1ccc(Cl)cc1 | inactive | inactive | inactive | 300 mg/kg | 100 mg/kg |  |  |  |  | 
5 | N=c1snc(N)n1-c1cccc2ccccc12 | inactive | inactive | inactive | 30 mg/kg | 300 mg/kg | 8.8% |  | 300 mg/kg |  | 
6 | N=c1snc(Nc2ccccn2)n1-c1ccccn1 | inactive | inactive | inactive | 300 mg/kg | 100 mg/kg |  |  | 300 mg/kg |  | 
7 | N=c1snc(N)n1-c1cccnc1 | inactive | inactive | inactive | 300 mg/kg | 100 mg/kg |  |  |  |  | 
8 | N=c1snc(Nc2cccnc2)n1-c1cccnc1 | inactive | inactive | inactive | 300 mg/kg | 100 mg/kg |  |  |  |  | 
9 | N=c1snc(Nc2ccc(F)cc2)n1-c1ccc(F)cc1 |  | inactive | inactive | 100 mg/kg | 300 mg/kg | 5.1% | 300 mg/kg |  |  | 
10 | CCOc1ccc(Nc2nsc(=N)n2-c2ccc(OCC)cc2)cc1 |  |  | inactive | 30 mg/kg | 300 mg/kg | 55.6% | 300 mg/kg |  | 300 mg/kg | 
11 | COc1ccc(-n2c(N)nsc2=N)cc1 | inactive | inactive | inactive | 300 mg/kg |  |  |  |  |  | 
12 | N=c1snc(N)n1-c1ncccn1 | inactive | inactive | inactive |  | 100 mg/kg |  |  |  |  | inactive
13 | CCOc1ccc(-n2c(N)nsc2=N)cc1 | inactive | inactive | inactive | 100 mg/kg | 100 mg/kg | 46.8% |  |  |  | 
14 | N=c1snc(N)n1-c1ccc(F)cc1 |  | inactive | inactive | 100 mg/kg | 100 mg/kg | 20.2% | 300 mg/kg |  |  | 
15 | N=c1snc(N)n1-c1ccc(Br)cc1 | inactive | inactive | inactive | 300 mg/kg |  |  |  |  |  | 
16 | NC(=O)N1c2ccccc2C=Cc2ccccc21 [CARBAMAZEPINE] | inactive |  | inactive | 30 mg/kg | 100 mg/kg |  |  | 300 mg/kg | 100 mg/kg | 
17 | N=c1snc(N)n1-c1ccncc1 | inactive | inactive | inactive | 300 mg/kg | 100 mg/kg |  |  |  |  | 
18 | N=c1snc(Nc2cccc3ccccc23)n1-c1cccc2ccccc12 |  | inactive | inactive | 30 mg/kg | 300 mg/kg | 16.4% | 300 mg/kg |  |  | 
19 | N=c1snc(Nc2ccncc2)n1-c1ccncc1 | inactive | inactive | inactive | 300 mg/kg | 100 mg/kg |  |  |  |  | 
